According to patent US10501428B2, “Thymoquinone derivatives for treatment of cancer” (United Arab Emirates University, priority 2014, dated 2019):
Like-named read-outs stand apart in the source and are kept apart here.

Experiments:
[1] = system: Human lung cancer cells A549; experiment: CellTiter-Glo cell viability assay, A549 lung cancer cells; assay type: cell-based; conditions: for cytotoxicity at 100 µM / IC50: Homo sapiens; for cytotoxicity at 100 µM: A549, 100 μM, relative to control (DMSO), read-out: decrease in cell viability; for IC50: A549, 24 hours
Procedure: (§1) Human lung cancer cells A549, human breast cancer cells MDA-MB-231 and colorectal cancer cells HT29, were used to test the antiproliferative activity of the synthesised compounds. Human lung cancer cells A549 were maintained in RPMI 1640 medium (Hyclone Laboratories, USA), human breast cancer cells MDA-MB-231 and colorectal cancer cells HT29 were maintained in DMEM medium (Hyclone Laboratories, USA). All media was supplemented with antibiotics (penicillin 50 U/ml; streptomycin 50 ug/ml) (Hyclone Laboratories, USA).
(§2) Cells were seeded at a density of 5,000 cells/well into 96-well plates. After 24 h, cells were treated for 24 and 48 h with different concentrations of compounds TQ1-5 and 8 (5-100 μM), in triplicate. Control cultures were treated with 0.1% DMSO. The effect of the compounds TQ1-8 on cell viability was determined using the CellTiter-Glo Luminescent Cell Viability assay (Promega Corporation, Madison, USA), based on quantification of ATP, which signals the presence of metabolically active cells. The luminescent signal was measured using the GLOMAX Luminometer system. Data were presented as proportional viability (%) by comparing the treated group with the untreated cells, the viability of which is assumed to be 100%.

[2] = system: G-quadruplex DNA; experiment: Fluorescence titration of TQs with G-quadruplex DNA (modified Scatchard); assay type: binding, human; conditions: non-linear regression, modified Scatchard equation
Procedure: (§3) A 2 ml of the stock single stranded DNA; 5′-[…]-3′ (SEQ ID NO: 1) was gently heated up to 95° C., incubated for 10 minutes and then left to cool to room temperature. Resultant solution was kept in fridge at 4° C. overnight.
To 3 ml of 5×10^−5 M of each of compounds TQ1-8 in Tris-KCl-buffer, pH 7.4, successive portions of G-quadruplex DNA (1.44×10^−4 M) were added. After each addition, the TQ solution was stirred for 20 seconds, incubated for 3 min and its emission was scanned in the range 300-600 nm using excitation Amax of 280 nm and slit width of 10.00 nm. Titration stopped when no change in fluorescence intensity was observed.
Scatchard plots were used to determine the binding affinity of the thymoquinone derivative compounds to G-quadruplex based on fluorescence titration, keeping the compounds concentration constant and varying DNA amounts.
Dependant binding sites may have synergistic (the first bound ligand encourage the next binding one) or antagonistic (the first bound ligand suppress the next binding one) effects on each other, a phenomenon known as the neighbor exclusion effect. Non-linear regression based on a modified Scatchard equation gave the binding constants and number of binding sites shown in Table 3. Compound TQ8 has shown the highest binding constant (1.33×10^7 M^−1) and compound TQ5 has shown the lowest binding constant (7.76×10^4 M^−1)

[3] = system: G-quadruplex DNA; experiment: Melting temperature curves of G-quadruplex and TQ complexes by CD; assay type: binding, human; conditions: for Tm: equimolar G-quadruplex and TQ 3.93×10^−6 M, Tris-KCl buffer pH 7.4, CD at 293 nm; for Δ Tm: versus G-quadruplex DNA alone (70.0 ° C.)
Procedure: as §3
Melting temperature curves for G-quadruplex and their TQs adducts were constructed using CD spectral measurements.
A 1 ml telomeric G-quadruplex (3.93×10^−6 M) in Tris-KCl-buffer pH7.4, was heated in 1-5° C. increments in the range 25-95° C. using 5 minutes incubation time intervals. CD spectra were recorded in the range 200-400 nm using 50 nm/min, 1 nm band width and 3 accumulations at each point. CD spectra were baseline corrected against blank solution and CD intensities at 293 nm were plotted versus temperature.
Similarly G-quadruplex-TQ1-8 1 mL complex solutions that were 3.93×10^−6 M of G-quadruplex and 3.93×10−6 M of TQs were heated up to 95° C. and measured. The solutions were prepared by mixing equi-molar amounts of G-quadruplex (27.3 μL, 1.44×10^−4 M) with TQ compounds 1-8 (39.30 μL, 1×10^−4 M) in 1 mL KCl-buffer, pH 7.4. CD spectra were baseline corrected and CD intensities at 293 nm were plotted versus temperature.

[4] = system: colorectal cancer cells HT29; experiment: CellTiter-Glo cell viability assay, HT29 colorectal cancer cells; assay type: cell-based; conditions: Homo sapiens, HT-29; for cytotoxicity at 100 µM: HT29, 100 μM, read-out: loss in cell viability
Procedure: as §1, §2

[5] = system: human breast cancer cells MDA-MB-231; experiment: CellTiter-Glo cell viability assay, MDA-MB-231 breast cancer cells; assay type: cell-based; conditions: for cytotoxicity at 100 µM: MDA-MB-231, 100 μM, read-out: loss in cell viability
Procedure: as §1, §2

[6] = system: Human lung cancer cells A549; conditions: value has been reported, read-out: IC50 A549 (parent TQ, reported); cited from earlier work

Compound | melting point [°C] | cytotoxicity at 100 µM ([1]; 24 hours) [%] | cytotoxicity at 100 µM ([1]; 48 hours exposure) [%] | IC50 [1] [µM] | binding constant K [2] [M⁻¹] | Tm [3] [°C] | Δ Tm [3] [°C] | cytotoxicity at 100 µM ([4]; 24 hours exposure) [%] | cytotoxicity at 100 µM ([4]; 48 hours exposure) [%] | IC50 ([4]; HT29, 24 hours) [µM] | potency compared to the parent TQ molecule ([1]; A549 IC50 comparison) [%] | cytotoxicity at 100 µM ([5]; 24 hours exposure) [%] | cytotoxicity at 100 µM ([5]; 48 hours exposure) [%] | IC50 ([5]; MDA-MB-231, 24 hours) [µM] | IC50 [6] [µM]
CC1=C(NCCN2CCOCC2)C(=O)C(C(C)C)=CC1=O [TQ1, 5-Isopropyl-2-methyl-3-((2-morpholinoethyl)amino)-1,4-benzoquinone] | 92 to 95 | 15 | 33 | 74.3 | 113000 | 79.0 | 9.0 | – | – | – | – | – | – | – | –
CC1=C(NCc2ccc(C(F)(F)F)cc2)C(=O)C(C(C)C)=CC1=O [TQ2, 5-Isopropyl-2-methyl-3-(4-trifluoromethylbenzylamino)-1,4-benzoquinone] | 110.5 to 112 | 32 | 57 | 84.3 | 567000 | 76.0 | 6.0 | – | – | – | – | – | – | – | –
CC1=C(NCc2ccc(F)cc2)C(=O)C(C(C)C)=CC1=O [TQ3, 5-Isopropyl-2-methyl-3-(4-fluorobenzylamino)-1,4-benzoquinone] | 80 to 82.5 | 29 | 64 | 83.2 | 330000 | 76.0 | 6.0 | – | – | – | – | – | – | – | –
CC1=C(NCc2ccccc2)C(=O)C(C(C)C)=CC1=O [TQ4, 5-Isopropyl-2-methyl-3-(benzylamino)-1,4-benzoquinone] | 83 to 84.5 | 17 | 58 | 88.7 | 95200 | 76.0 | 6.0 | – | – | – | – | – | – | – | –
CC1=C(NCc2cc(C(F)(F)F)cc(C(F)(F)F)c2)C(=O)C(C(C)C)=CC1=O [TQ5, 5-Isopropyl-2-methyl-3-(3,5-ditrifluoromethylbenzylamino)-1,4-benzoquinone] | 111 to 114 | 33 | 48 | 105 | 77600 | 77.0 | 7.0 | – | – | – | – | – | – | – | –
CC1=C(NCCO)C(=O)C(C(C)C)=CC1=O [TQ6, 5-isopropyl-2-methyl-3-(2-hydroxyethylamino)-1,4-benzoquinone] | – | – | – | – | 1.49e+06 | 80.0 | 10.0 | – | – | – | – | – | – | – | –
COc1ccc(CNC2=C(C)C(=O)C=C(C(C)C)C2=O)cc1OC [TQ7, 5-isopropyl-2-methyl-3-(3,4-dimethoxylbenzylamino)-1,4-benzoquinone] | – | – | – | – | 1.17e+06 | 77.0 | 7.7 | – | – | – | – | – | – | – | –
CC1=C(N)C(=O)C(C(C)C)=CC1=O [TQ8, 3-amino-5-isopropyl-2-methyl-1,4-benzoquinone] | 68 to 72 | 99 | 100 | 35 | – | – | – | 97 | 99 | 55.8 | ≥ 200 | 83 | 98 | 45.1 | –
CC1=CC(=O)C(C(C)C)=CC1=O [TQ, 2-isopropyl-5-methyl-1,1,4-benzoqinone] | – | – | – | – | – | – | – | – | – | – | – | – | – | – | 78.3
